Data reported in PMC1084349 (BMC Neuroscience, 2005).
Counter-ions that a name gives are not always drawn. Like-named read-outs stand apart in the source and are kept apart here.

Columns and labels:
sweet taste [1] = system: sweet taste; parameters: method as in PMID 11917125, PMID 7812727, PMID 12379598, PMID 10480680; conditions: humans; cited from earlier work
[2] = system: rTas1r2 and rTas1r3 mutants m1 – m7 other than m6; test: Calcium mobilization (FLIPR), other rTas1r3 mutants (m1-m5, m7); format: cell-based, rat; conditions: stimulation with 1 mM stevioside; 1.0 mM lactisole
Excerpt: Receptor mutants were generated by site directed mutagenesis according to the QuikChange protocol (Stratagene). The forward and reverse complement primers contained the desired mutations and annealed to the same sequence on opposite strands of the plasmids. The following rTas1r3 receptor variants were generated: m1: S576L; m2: R632Q, S635P, S637Q; m3: M644L A645S; m4: A702T; m5: Q717H, V718M, V723A, E725V; m6: L735F, V738A, I740A. m6/1: V738A, I740A, m6/2: L735F, I740A, m6/3: L735F, V738A. m7: A793V, Y794L, Q795R. Subsequently a rTas1r3-V738A variant was generated. All constructs were checked by sequencing.
The cDNAs were transiently transfected into HEK293T cells stably expressing the chimeric G-protein subunit Gα16gust44 [20] using Lipofectamine 2000 (Invitrogen) according to the manufacturer's protocol. 3–4 hours after transfection, DMEM was replaced by low-glucose DMEM supplemented with GlutaMAX and 10% dialyzed FBS (Invitrogen). 22–44 hours later, cells were loaded for 1 hour with the calcium sensitive dye Fluo4-AM (2 μg/ml in DMEM, Molecular Probes). […] Calcium mobilization was monitored by an automated fluorometric imaging plate reader (FLIPR, Molecular Devices). […] The obtained calcium signals were corrected for the response of mock transfected cells and normalized to the fluorescence of cells prior to the stimulus using ΔF/F=(F-F0)/F0. […]

[3] = system: hTAS1R2 and tas1r3-hN-rTM; test: Calcium mobilization (FLIPR), chimera with human N-terminus and rat transmembrane region; format: cell-based
Excerpt: The receptor chimeras of Tas1r3 were constructed using recombinant PCR. In the first reactions the N-terminal and the C-terminal part containing the seven transmembrane domains of hTAS1R3 and rTas1r3 were amplified from plasmid DNA using Ultra Pfu Polymerase (Stratagene). For the hTAS1R3 and rTas1r3 N-termini the forward vector-anchored primer (CMV: […]) and a reverse gene specific primer ([…]) were used. The hTAS1R3 and rTas1r3 C-terminal part were amplified with forward gene specific primer ([…]) and a reverse vector-anchored primer ([…]). PCR conditions were: 5 min, 94°C, 24 cycles 1 min 94°C, 0.5 min 64°C, 2 min 72°C; 5 min 72°C. The amplicons were purified using the Highpure PCR Product Purification Kit (Roche) and used as template for the second PCR. To create the chimeric receptor tas1r3-hN-rTM, equimolar amounts (~50 ng) of the hTAS1R3 N-terminus and rTas1r3 transmembrane domains were combined without additional oligonucleotides. PCR conditions were: 5 min 94°C; 15 cycles of 2 min 64°C, 2 min 72°C and 0.5 min 94°C; followed by 5 min 64°C and 10 min 72°C. […] These chimeras were cloned into pcDNA5/FRT.
The cDNAs were transiently transfected into HEK293T cells stably expressing the chimeric G-protein subunit Gα16gust44 [20] using Lipofectamine 2000 (Invitrogen) according to the manufacturer's protocol. 3–4 hours after transfection, DMEM was replaced by low-glucose DMEM supplemented with GlutaMAX and 10% dialyzed FBS (Invitrogen). 22–44 hours later, cells were loaded for 1 hour with the calcium sensitive dye Fluo4-AM (2 μg/ml in DMEM, Molecular Probes). Cells were washed 3x in solution C1 (130 mM NaCl, 5 mM KCl, 10 mM Hepes, 2 mM CaCl2, and 5 mM Glucose, pH 7,4). Calcium mobilization was monitored by an automated fluorometric imaging plate reader (FLIPR, Molecular Devices). Ligands (Sigma-Aldrich, Merck) were dissolved in C1 solution. All data were collected from at least two independent experiments carried out in triplicate. The obtained calcium signals were corrected for the response of mock transfected cells and normalized to the fluorescence of cells prior to the stimulus using ΔF/F=(F-F0)/F0. […]
All sweeteners were used at concentrations which were close to the maximal obtainable signal. (c) Alignment of amino acid sequences of the human, rat, and mouse Tas1r3 transmembrane regions. Color code: white, identical; grey, conservative; dark-grey, similar; black, non-similar. TM, predicted transmembrane domain, indicated by a black bar. Dots indicate the location of the primer used to generate the chimeric rat-human Tas1r3 receptors. Asterisks denote amino acid positions that are identical in rat and mouse but variable between humans and rodents and are located in the extracellular loops or the upper part of the transmembran regions. Boxes indicate the several rTas1r3 mutants m1 – m7, including the amino acid substitutions. m6/1 – m6/3 signified the reconverted amino acid of mutant m6.

sweet taste [4] = system: sweet taste; parameters: method as in PMID 11917125, PMID 7812727, PMID 12379598, PMID 10480680; conditions: rats; cited from earlier work
hTAS1R2-hTAS1R3 = target: T1, hTAS1R2-hTAS1R3 (Homo sapiens, UniProt Q7RTX0+Q8TE23); test: Calcium mobilization (FLIPR) in transfected HEK293T-Gα16gust44 cells, human sweet receptor; conditions: asp 15 mM; cyc 30 mM; neo 0.1 mM; sac 10 mM; suc 100 mM; stev 1 mM
T1 sequence (Q8TE23 20-839): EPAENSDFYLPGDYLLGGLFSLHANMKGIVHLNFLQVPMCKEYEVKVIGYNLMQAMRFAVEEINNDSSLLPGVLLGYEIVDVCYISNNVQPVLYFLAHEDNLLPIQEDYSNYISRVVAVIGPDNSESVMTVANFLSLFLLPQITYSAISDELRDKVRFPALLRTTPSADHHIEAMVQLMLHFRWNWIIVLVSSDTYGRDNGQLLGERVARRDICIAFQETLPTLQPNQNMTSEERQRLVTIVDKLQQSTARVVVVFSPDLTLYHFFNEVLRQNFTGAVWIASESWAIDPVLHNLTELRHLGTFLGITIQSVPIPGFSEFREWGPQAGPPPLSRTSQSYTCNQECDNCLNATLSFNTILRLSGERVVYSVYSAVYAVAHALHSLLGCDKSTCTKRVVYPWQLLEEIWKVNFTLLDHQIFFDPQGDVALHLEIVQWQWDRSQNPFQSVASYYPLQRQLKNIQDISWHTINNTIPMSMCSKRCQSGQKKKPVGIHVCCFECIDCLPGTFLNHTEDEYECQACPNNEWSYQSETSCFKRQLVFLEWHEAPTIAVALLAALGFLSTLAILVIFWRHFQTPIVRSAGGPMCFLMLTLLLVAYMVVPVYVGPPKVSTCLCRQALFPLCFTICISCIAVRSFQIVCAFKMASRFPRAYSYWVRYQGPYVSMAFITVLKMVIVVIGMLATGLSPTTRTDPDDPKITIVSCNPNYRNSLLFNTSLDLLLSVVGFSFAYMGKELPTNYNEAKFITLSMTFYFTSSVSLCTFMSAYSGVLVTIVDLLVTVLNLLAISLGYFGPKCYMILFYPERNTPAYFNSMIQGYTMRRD
T1 sequence (Q7RTX0 21-852): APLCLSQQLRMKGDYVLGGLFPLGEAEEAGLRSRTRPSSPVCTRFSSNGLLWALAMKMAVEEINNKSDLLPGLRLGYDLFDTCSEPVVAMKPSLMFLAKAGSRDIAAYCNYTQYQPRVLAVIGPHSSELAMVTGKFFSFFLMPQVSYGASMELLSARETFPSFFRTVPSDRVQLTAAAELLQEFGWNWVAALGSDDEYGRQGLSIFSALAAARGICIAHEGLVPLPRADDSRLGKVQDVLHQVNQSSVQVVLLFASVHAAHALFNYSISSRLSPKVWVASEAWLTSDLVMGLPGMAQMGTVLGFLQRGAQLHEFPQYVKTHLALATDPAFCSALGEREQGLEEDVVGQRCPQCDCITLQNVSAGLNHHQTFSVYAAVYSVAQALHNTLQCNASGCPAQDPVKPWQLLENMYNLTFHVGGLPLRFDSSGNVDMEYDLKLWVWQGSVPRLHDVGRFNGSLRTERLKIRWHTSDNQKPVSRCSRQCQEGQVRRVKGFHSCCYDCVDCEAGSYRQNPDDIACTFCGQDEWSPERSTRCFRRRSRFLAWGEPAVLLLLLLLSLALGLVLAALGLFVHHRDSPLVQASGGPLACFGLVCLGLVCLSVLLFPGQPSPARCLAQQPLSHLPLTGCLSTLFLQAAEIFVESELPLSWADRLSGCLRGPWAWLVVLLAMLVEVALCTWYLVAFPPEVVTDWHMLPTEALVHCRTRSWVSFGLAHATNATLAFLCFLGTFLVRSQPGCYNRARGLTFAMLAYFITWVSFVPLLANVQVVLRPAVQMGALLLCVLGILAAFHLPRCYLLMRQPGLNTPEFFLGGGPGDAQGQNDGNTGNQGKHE

[5] = system: human TAS1R2-TAS1R3 heteromer; conditions: cited from earlier work

Molecule: COc1ccc(OC(C)C(=O)O)cc1 (stereo not drawn) [lactisole, 2-(4-methoxphenoxy) propanoic acid sodium salt]
- suppression of the sweet taste of various compounds (sweet taste [1]): suppresses the sweet taste
- lactisole sensitivity conferred to the heteromer [2]: did not
- lactisole sensitivity of agonist responses ([3]; 1.0 mM lactisole, all four agonists): lactisole insensitive
- suppression of the sweet taste of various compounds (sweet taste [4]): not in rats

Molecule: O=C1NS(=O)(=O)c2ccccc21 [saccharin]
- activation of receptor (calcium response) (hTAS1R2-hTAS1R3): elevated intracellular calcium levels
- activation of receptor (calcium response) ([3]; asp 15 mM, cyc 30 mM, neo 0.1 mM, sac 10 mM, suc 100 mM, stev 1 mM): responded

Molecule: brazzein: sweet protein (QDKCKKVYENYPVSKCQLANQCNYDCKLDKHARSGECFYDEKRNLQCICDYCEY; UniProt P56552 1-54, looked up)
- activation of heteromer [5]: only activate the human

Molecule: monellin
- activation of heteromer [5]: only activate the human

Molecule: thaumatin
- activation of heteromer [5]: only activate the human
